Patent US20080261976A1, “NOVEL PIPERIDINECARBOXAMIDE DERIVATIVES, METHOD FOR PREPARING SAME AND PHARMACEUTICAL COMPOSITIONS CONTAINING SAME” (SANOFI-AVENTIS, priority 2001, published 2008)
Counter-ions that a name gives are not always drawn. Like-named read-outs stand apart in the source and are kept apart here.

How the values were obtained:
NK3 receptors [1] = target: T1, NK3 receptors (Cavia porcellus, UniProt P30098); assay: Increase in hippocampal acetylcholine release caused by NK3 agonist applied in the septum of guinea pigs; assay type: in vivo, guinea pig; conditions: 0.3-1 mg/kg by the intraperitoneal route
T1 construct: from tissue; host or cells: guinea pig brain (septum/hippocampus; A10/VTA), living animal
T1 sequence (P30098 1-440): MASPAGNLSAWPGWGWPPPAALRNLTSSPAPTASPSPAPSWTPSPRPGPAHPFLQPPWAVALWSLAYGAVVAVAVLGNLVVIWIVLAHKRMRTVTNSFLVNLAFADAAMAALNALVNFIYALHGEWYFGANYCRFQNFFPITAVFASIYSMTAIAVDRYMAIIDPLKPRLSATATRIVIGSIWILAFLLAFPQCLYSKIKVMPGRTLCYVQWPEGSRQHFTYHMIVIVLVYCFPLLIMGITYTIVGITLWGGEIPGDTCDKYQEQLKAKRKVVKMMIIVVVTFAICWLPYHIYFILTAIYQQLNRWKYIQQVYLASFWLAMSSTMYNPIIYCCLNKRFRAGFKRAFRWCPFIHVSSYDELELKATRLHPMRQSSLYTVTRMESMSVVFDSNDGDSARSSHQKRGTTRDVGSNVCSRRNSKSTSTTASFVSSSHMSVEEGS
From the text: (§1) In rats, the application of an agonist of the NK2 receptors in the septum causes an increase in the release of acetylcholine in the hippocampus (test carried out according to R. Steinberg et al., Eur. J. Neurosci., 1998, 10, 2337-2345). Likewise in guinea pigs, the local application of an agonist of the NK3 receptors in the septum causes an increase in the release of acetylcholine in the hippocampus (test carried out according to N. Marco et al., Neuropeptides, 1998, 32, 481-488).

NK3 receptors [2] = target: T1, NK3 receptors; assay: Haloperidol-induced increase in number of spontaneously active dopaminergic neurons in A10 region of guinea pigs; assay type: in vivo, guinea pig; conditions: haloperidol 1 mg/kg i.p., compound 0.1-1 mg/kg by the intraperitoneal route
From the text: This increase is mediated by the activation of the NK3 receptors by endogenous neurokinin B (C. Gueudet et al., Synapse, 1999, 33, 71-79).

NK2 receptor = assay: Rotating behaviour induced by intrastriatal [Nle10]NKA(4-10) in gerbils; assay type: in vivo, gerbil; conditions: [Nle10]NKA(4-10) intrastriatal
Description: In gerbils, a rotating behaviour is induced by intrastriatal administration of a specific agonist of the NK2 receptor, [Nle^10]NKA(4-10); it was observed that a unilateral application of [Nle^10]NKA(4-10) into the gerbil striatum leads to strong contralateral rotations which are inhibited by the compounds according to the invention administered either by the intraperitoneal route, or by the oral route. This test was carried out according to M. Poncelet et al., Neurosci, Lett., 1993, 149, 40-42. In this test, the compounds according to the invention are active at doses ranging from 0.1 mg to 30 mg per kg.

NK3 receptor = assay: Rotating behaviour induced by intrastriatal senktide in gerbils; assay type: in vivo, gerbil
Description: This test was carried out according to X. Emonds-Alt et al., Life Sci., 1995, 56, PL27-PL32.

NK2 receptors [3] = target: T2, NK2 receptors (Rattus norvegicus, UniProt P16610); assay: Increase in hippocampal acetylcholine release caused by NK2 agonist applied in the septum of rats; assay type: in vivo; conditions: 0.1-0.3 mg/kg by the intraperitoneal route
T2 construct: from tissue; host or cells: rat brain (septum/hippocampus; prefrontal cortex), living animal
T2 sequence (P16610 1-390): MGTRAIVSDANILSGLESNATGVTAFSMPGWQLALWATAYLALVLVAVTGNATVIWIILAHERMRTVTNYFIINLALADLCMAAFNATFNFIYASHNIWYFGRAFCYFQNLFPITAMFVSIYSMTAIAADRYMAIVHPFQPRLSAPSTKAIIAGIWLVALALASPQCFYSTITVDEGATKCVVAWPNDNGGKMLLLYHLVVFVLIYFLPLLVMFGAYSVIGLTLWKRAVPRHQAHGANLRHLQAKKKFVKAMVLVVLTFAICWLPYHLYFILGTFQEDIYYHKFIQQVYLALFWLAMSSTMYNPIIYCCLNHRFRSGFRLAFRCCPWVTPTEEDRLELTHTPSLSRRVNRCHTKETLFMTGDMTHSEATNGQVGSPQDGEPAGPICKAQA
From the text: as §1

[4] = target: T3, cloned human NK3 receptors (Homo sapiens, UniProt P29371); assay: Binding of [125I]His[MePhe7]NKB to cloned human NK3 receptors expressed by CHO cells; conditions: read-out: inhibition constant Ki, binding of [125I]His[MePhe7]NKB to cloned human NK3 receptors
T3 construct: expressed in transfected cells; host or cells: CHO cells
T3 sequence (P29371 1-465): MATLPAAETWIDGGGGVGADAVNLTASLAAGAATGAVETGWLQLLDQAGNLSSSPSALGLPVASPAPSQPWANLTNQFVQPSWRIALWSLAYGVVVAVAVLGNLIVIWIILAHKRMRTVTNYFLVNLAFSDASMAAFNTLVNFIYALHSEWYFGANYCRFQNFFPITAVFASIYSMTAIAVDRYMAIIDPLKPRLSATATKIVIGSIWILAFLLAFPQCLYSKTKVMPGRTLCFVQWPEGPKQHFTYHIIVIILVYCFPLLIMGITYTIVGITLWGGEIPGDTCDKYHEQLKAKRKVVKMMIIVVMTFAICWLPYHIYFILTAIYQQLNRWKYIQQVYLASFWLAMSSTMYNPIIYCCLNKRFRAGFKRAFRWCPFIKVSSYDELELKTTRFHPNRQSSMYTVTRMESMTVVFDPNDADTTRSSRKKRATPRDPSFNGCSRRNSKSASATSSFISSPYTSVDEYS
Description: The affinity of the compounds for tachykinin receptors was evaluated in vitro by several biochemical tests using radioligands: 3) The binding of [^125I]His[[…]]NKB to the cloned human NK3 receptors expressed by CHO cells (Buell et al., FEBS Letters, 1992, 299, 90-95). The tests were carried out according to X. Emonds-Alt et al. (Eur. J. Pharmacol., 1993, 250, 403-413; Life Sci., 1995, 56, PL 27-32).

[5] = target: T4, cloned human NK2 receptors (Homo sapiens, UniProt P21452); assay: Binding of [125I]His-NKA to cloned human NK2 receptors expressed by CHO cells; conditions: read-out: inhibition constant Ki, binding of [125I]His-NKA to cloned human NK2 receptors
T4 construct: expressed in transfected cells; host or cells: CHO cells
T4 sequence (P21452 1-398): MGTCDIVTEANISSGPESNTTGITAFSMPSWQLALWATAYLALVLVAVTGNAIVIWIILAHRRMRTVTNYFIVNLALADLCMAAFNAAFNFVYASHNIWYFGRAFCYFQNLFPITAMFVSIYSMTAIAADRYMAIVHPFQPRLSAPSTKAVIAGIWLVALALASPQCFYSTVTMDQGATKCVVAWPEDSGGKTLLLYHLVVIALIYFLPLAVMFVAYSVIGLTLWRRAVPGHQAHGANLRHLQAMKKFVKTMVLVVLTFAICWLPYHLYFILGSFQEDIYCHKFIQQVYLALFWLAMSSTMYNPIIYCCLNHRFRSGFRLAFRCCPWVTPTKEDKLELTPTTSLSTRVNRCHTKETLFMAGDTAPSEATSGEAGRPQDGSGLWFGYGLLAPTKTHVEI
Description: The affinity of the compounds for tachykinin receptors was evaluated in vitro by several biochemical tests using radioligands: 2) The binding of [^125I]|His-NKA to the cloned human NK2 receptors expressed by CHO cells (Y. Takeda et al., J. Neurochem., 1992, 59, 740-745). The tests were carried out according to X. Emonds-Alt et al. (Eur. J. Pharmacol., 1993, 250, 403-413; Life Sci., 1995, 56, PL 27-32). […] The inhibition constant Ki is less than or equal to 5×10^−10M.

NK2 receptors [6] = target: T2, NK2 receptors; assay: Constraint stress-induced increase in tissue level of DOPAC in prefrontal cortex of rats; assay type: in vivo; conditions: 1 mg/kg by the intraperitoneal route
From the text: In rats, constraint stress causes an increase in the tissue level of DOPAC (3,4-dihydroxyphenyl acetic acid) in the prefrontal cortex (test carried out according to B. A. Morrow et al., Eur. J. Pharmacol., 1993, 238, 255-262).

NK2 receptors [7] = target: T2, NK2 receptors; conditions: rats, literature reference; cited from earlier work

| Compound | effect on increase in release of acetylcholine in the hippocampus caused by an NK3 agonist (NK3 receptors [1]) | effect on haloperidol-induced increase in number of spontaneously active dopaminergic neurons (A10 region) (NK3 receptors [2]) | effective dose 50 (ED50), inhibition of contralateral rotations (NK2 receptor; intraperitoneal route) | effective dose 50 (ED50), inhibition of contralateral rotations (NK2 receptor; oral route) | ED50, inhibition of contralateral rotations (NK3 receptor; intraperitoneal route) | ED50, inhibition of contralateral rotations (NK3 receptor; oral route) | effect on increase in release of acetylcholine in the hippocampus caused by an NK2 agonist (NK2 receptors [3]) | Ki [4] | Ki [5] | effect on constraint stress-induced increase in DOPAC tissue level in prefrontal cortex (NK2 receptors [6]) | effect on constraint stress-induced increase in DOPAC tissue level in prefrontal cortex (NK2 receptors [7]) |
| --- | --- | --- | --- | --- | --- | --- | --- | --- | --- | --- | --- |
| CN(C)C(=O)C1(N2CCCCC2)CCN(CCC2(c3ccc(Cl)c(Cl)c3)CN(C(=O)c3ccccc3)CCO2)CC1 (single isomer, unassigned) [Example 1, N,N-Dimethyl-1-[2-[4-benzoyl-2-(3,4-dichloro-phenyl)morpholin-2-yl]ethyl]-4-(piperidin-1-yl)-piperidine-4-carboxamide dihydrochloride, dextrorotatory isomer] | blocks | blocks | 2.9 mg per kg | 6.5 mg per kg | 2.8 mg per kg | 4.3 mg per kg | blocks | 0.04 nM | 0.04 nM | completely blocks | – |
| NC(=O)C1(N2CCCCC2)CCN(CCC2(c3ccc(Cl)c(Cl)c3)CN(C(=O)c3ccccc3)CCO2)CC1 (stereo not drawn) [compound α, 1-[2-[4-benzoyl-2-(3,4-dichlorophenyl)morpholin-2-yl]ethyl]-4-(piperidin-1-yl)piperidine-4-carboxamide, reference compound] | – | – | – | – | – | – | – | 2 nM | 0.04 nM | – | – |
| CC(=O)NC1(c2ccccc2)CCN(CC[C@H](CN(C)C(=O)c2ccccc2)c2ccc(Cl)c(Cl)c2)CC1 [saredutant] | – | – | – | – | – | – | – | – | – | – | blocked |
